Assay [1] has as its system Calpain activity in SH-SY5Y cells. Kind of assay: SH-SY5Y + AMC fluorescence assay (Suc-LLVY-AMC substrate). In kind it is cell-based. As to conditions: read-out: SH-SY5Y + AMC IC50.
The next assay has as its target T1, Human Calpain 9/NS1 (Homo sapiens, UniProt O14815).
T1 sequence (O14815 1-690): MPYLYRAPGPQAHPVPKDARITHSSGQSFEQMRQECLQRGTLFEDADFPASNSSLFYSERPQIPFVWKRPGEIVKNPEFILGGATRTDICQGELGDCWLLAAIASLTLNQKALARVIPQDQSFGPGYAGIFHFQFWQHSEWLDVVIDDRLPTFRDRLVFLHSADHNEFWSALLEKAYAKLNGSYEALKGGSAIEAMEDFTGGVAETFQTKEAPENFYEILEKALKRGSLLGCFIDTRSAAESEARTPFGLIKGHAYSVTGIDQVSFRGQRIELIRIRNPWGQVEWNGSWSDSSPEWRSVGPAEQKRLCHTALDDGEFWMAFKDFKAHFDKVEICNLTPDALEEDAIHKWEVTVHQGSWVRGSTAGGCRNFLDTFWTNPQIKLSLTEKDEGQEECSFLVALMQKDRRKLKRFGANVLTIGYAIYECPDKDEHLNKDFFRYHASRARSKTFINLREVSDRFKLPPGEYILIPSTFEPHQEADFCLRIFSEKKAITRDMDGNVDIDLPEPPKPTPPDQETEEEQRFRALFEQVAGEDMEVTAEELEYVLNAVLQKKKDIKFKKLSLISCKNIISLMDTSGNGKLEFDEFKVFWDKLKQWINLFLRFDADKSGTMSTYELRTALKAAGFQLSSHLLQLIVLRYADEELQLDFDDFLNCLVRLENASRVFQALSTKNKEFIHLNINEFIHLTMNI
T1 sequence (P04632 1-268 partner): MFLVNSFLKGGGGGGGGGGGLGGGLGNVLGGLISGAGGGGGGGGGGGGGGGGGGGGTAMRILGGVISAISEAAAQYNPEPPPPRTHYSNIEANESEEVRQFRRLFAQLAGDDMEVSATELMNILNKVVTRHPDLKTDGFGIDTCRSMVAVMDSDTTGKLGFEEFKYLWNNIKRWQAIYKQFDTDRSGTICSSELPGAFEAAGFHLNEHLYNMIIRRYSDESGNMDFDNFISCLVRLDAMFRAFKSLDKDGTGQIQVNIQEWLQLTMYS
Kind of assay: Calpain inhibition continuous fluorescence (FRET) assay, Human Calpain 9/NS1. In kind it is biochemical. The note with it: read-out: Human Calpain 9/NS1 IC50. A digest of the protocol: (§1)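 Fluorescence increase from the cleaved 5-FAM/QXL 520 substrate, read at 490/520 nm, gave activity. Calcium was supplied with the substrate to activate the enzyme in situ after a 25C enzyme-inhibitor preincubation, and IC50s were fit from initial slopes.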

In another assay the target is T2, Human Calpain 2/NS1 (Homo sapiens, UniProt P17655).
T2 sequence (P17655 1-700): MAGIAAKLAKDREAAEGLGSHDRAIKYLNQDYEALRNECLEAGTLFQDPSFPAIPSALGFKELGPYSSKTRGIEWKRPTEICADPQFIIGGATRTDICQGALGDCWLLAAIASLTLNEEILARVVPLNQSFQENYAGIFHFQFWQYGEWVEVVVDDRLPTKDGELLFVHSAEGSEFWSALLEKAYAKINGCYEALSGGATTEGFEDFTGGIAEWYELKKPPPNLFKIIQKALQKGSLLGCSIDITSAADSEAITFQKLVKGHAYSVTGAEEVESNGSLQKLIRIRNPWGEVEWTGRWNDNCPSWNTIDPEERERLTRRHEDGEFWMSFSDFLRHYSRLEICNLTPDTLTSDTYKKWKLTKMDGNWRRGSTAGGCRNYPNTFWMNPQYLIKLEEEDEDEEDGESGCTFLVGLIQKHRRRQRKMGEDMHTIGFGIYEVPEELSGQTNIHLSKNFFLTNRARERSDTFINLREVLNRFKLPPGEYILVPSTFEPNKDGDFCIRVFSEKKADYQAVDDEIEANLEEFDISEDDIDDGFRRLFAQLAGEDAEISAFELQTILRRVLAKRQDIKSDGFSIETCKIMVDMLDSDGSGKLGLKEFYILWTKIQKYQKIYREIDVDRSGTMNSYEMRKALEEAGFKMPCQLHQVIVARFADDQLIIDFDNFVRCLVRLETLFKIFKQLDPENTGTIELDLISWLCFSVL
T2 sequence (P04632 1-268 partner): T1 sequence (P04632 1-268 partner)
Put plainly: Calpain inhibition continuous fluorescence (FRET) assay, Human Calpain 2/NS1. In kind it is biochemical. As to conditions: read-out: Human Calpain 2/NS1 IC50. A digest of the protocol:
as §1

Assay [2] concerns Calpain activity in SH-SY5Y cells (SBDP-150). Kind of assay: SH-SY5Y Spectrin western blot assay (SBDP-150 breakdown product, A23187-induced). In kind it is cell-based. As to conditions: Homo sapiens, SH-SY5Y cells, read-out: SH-SY5Y Spectrin IC50. Background: In western blotting, separated proteins are transferred to a membrane and probed.
For the next assay, the target named is T3, Human Calpain 1/NS1 (Homo sapiens, UniProt P07384).
T3 sequence (P07384 1-714): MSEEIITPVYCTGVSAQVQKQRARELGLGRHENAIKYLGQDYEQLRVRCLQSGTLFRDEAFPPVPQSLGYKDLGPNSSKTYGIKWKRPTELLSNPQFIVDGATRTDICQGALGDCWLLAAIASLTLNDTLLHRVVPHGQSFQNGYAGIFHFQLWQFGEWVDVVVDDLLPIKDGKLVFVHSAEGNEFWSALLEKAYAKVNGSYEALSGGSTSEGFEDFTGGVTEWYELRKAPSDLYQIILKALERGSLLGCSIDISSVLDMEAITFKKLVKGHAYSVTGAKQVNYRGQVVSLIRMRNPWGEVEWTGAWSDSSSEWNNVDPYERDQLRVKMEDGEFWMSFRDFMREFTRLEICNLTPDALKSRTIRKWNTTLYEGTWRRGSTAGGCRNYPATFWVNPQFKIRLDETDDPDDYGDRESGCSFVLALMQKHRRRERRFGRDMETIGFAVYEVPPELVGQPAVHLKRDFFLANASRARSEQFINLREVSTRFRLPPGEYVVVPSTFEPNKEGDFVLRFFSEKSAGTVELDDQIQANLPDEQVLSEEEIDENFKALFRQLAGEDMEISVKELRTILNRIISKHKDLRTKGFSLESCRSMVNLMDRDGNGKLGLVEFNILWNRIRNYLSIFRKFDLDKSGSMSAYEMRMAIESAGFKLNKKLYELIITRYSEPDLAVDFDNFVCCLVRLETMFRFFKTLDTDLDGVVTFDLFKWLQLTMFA
T3 sequence (P04632 1-268 partner): T1 sequence (P04632 1-268 partner)
Kind of assay: Calpain inhibition continuous fluorescence (FRET) assay, Human Calpain 1/NS1. In kind it is biochemical. As to conditions: read-out: Human Calpain 1/NS1 IC50. A digest of the protocol: as §1

The mark [3] stands for this setting: A23187-induced SBDP-150, western blot.
Where [4] appears, read: Column D, A23187-induced SBDP-150.

Where two headings read alike, the source gives them in different places.

As for `NC(=O)C(=O)C(Cc1ccccc1)NC(=O)c1cc(Cl)nn1-c1ncccn1` (stereo not drawn) [Compound 350, N-(4-amino-3,4-dioxo-1-phenylbutan-2-yl)-3-chloro-1-(pyrimidin-2-yl)-1H-pyrazole-5-carb oxamide], the IC50 in assay [1] is less than 10 µM; on Human Calpain 9/NS1, less than 3 µM; at Human Calpain 2/NS1 it was less than 3 µM; in assay [2] (setting [3]), 10 to 25 µM; on Human Calpain 1/NS1 it was less than 3 µM.
Consider `COc1ccc(C[C@H](NC(=O)c2cn(C)nc2-c2ccccc2)C(=O)C(N)=O)cc1` [Compound 420, (S)—N-(4-amino-1-(4-methoxyphenyl)-3,4-dioxobutan-2-yl)-1-methyl-3-phenyl-1H-pyrazole-4-carboxamide], for which the IC50 is more than 25 µM in assay [1]; less than 3 µM on Human Calpain 9/NS1; less than 3 µM on Human Calpain 2/NS1; less than 10 µM in assay [2] (setting [3]); less than 3 µM on Human Calpain 1/NS1.
For the compound `C#CC[C@H](NC(=O)c1cn(C)nc1-c1ccccc1F)C(=O)C(N)=O` [Compound 574, (S)—N-(1-amino-1,2-dioxohex-5-yn-3-yl)-3-(2-fluorophenyl)-1-methyl-1H-pyrazole-4-carboxamide], the IC50 was more than 25 µM in assay [1]; less than 3 µM at Human Calpain 9/NS1; less than 3 µM on Human Calpain 2/NS1; more than 25 µM in assay [2] (setting [3]); less than 3 µM on Human Calpain 1/NS1.
Take `Cc1cc(C(=O)N[C@@H](Cc2ccccc2)C(=O)C(N)=O)n(-c2cccc(CNC(=O)CCc3ccccc3)c2)n1` [Compound 142, (S)—N-(4-amino-3,4-dioxo-1-phenylbutan-2-yl)-3-methyl-1-(3-((3-phenylpropanamido)methyl)phenyl)-1H-pyrazole-5-carboxamide]: the IC50 in assay [1] (Column E) is less than 10 µM; at Human Calpain 9/NS1 (Column C), less than 3 µM; at Human Calpain 2/NS1 (Column B), less than 3 µM; in assay [2] (setting [4]) it was 10 to 25 µM; at Human Calpain 1/NS1 (Column A), less than 3 µM.
As for `Cc1nc(-c2ccccc2)c(C(=O)N[C@@H](CCc2ccccc2)C(=O)C(N)=O)o1` [Compound 386, (S)—N-(1-amino-1,2-dioxo-5-phenylpentan-3-yl)-2-methyl-4-phenyloxazole-5-carboxamide], the IC50 in assay [1] is 10 to 25 µM; at Human Calpain 9/NS1, less than 3 µM; at Human Calpain 2/NS1, less than 3 µM; in assay [2] (setting [3]) it was more than 25 µM; at Human Calpain 1/NS1, less than 3 µM.
Turning to `Cc1cc(C(=O)N[C@@H](Cc2ccccc2)C(=O)C(N)=O)n(-c2ccccc2)n1` [Compound 276, (S)—N-(4-amino-3,4-dioxo-1-phenylbutan-2-yl)-3-methyl-1-phenyl-1H-pyrazole-5-carboxamide], the IC50 in assay [1] (Column E) is less than 10 µM; at Human Calpain 9/NS1 (Column C) it was less than 3 µM; at Human Calpain 2/NS1 (Column B), less than 3 µM; in assay [2] (setting [4]), less than 10 µM; on Human Calpain 1/NS1 (Column A), less than 3 µM.
As for `Cn1cc(C(=O)NC(Cc2ccccc2)C(=O)C(N)=O)c(C2CCCCC2)n1` (stereo not drawn) [Compound 573, N-(4-amino-3,4-dioxo-1-phenylbutan-2-yl)-3-cyclohexyl-1-methyl-1H-pyrazole-4-carboxamide], the IC50 in assay [1] was less than 10 µM; on Human Calpain 9/NS1, less than 3 µM; at Human Calpain 2/NS1 it was less than 3 µM; in assay [2] (setting [3]), more than 25 µM; at Human Calpain 1/NS1 it was less than 3 µM.
On to `CCn1cc(C(=O)NC(Cc2ccccc2)C(=O)C(N)=O)c(-c2ccccc2F)n1` (stereo not drawn) [Compound 469, N-(4-amino-3,4-dioxo-1-phenylbutan-2-yl)-1-ethyl-3-(2-fluorophenyl)-1H-pyrazole-4-carboxamide], for which the IC50 in assay [1] was less than 10 µM; on Human Calpain 9/NS1 it was less than 3 µM; at Human Calpain 2/NS1, less than 3 µM; in assay [2] (setting [3]), 10 to 25 µM; at Human Calpain 1/NS1, less than 3 µM.
Regarding `Cn1cc(C(=O)NC(Cc2ccccc2)C(=O)C(N)=O)c(-c2cccc3c2OCCO3)n1` (stereo not drawn) [Compound 570, N-(4-amino-3,4-dioxo-1-phenylbutan-2-yl)-3-(2,3-dihydrobenzo[b][1,4]dioxin-5-yl)-1-methyl-1H-pyrazole-4-carboxamide], the IC50 in assay [1] is more than 25 µM; at Human Calpain 9/NS1, less than 3 µM; on Human Calpain 2/NS1, less than 3 µM; in assay [2] (setting [3]), more than 25 µM; on Human Calpain 1/NS1, less than 3 µM.
As for `NC(=O)C(=O)C(Cc1ccccc1)NC(=O)c1cn(C(F)F)nc1-c1ccccn1` (stereo not drawn) [Compound 550, N-(4-amino-3,4-dioxo-1-phenylbutan-2-yl)-1-(difluoromethyl)-3-(pyridin-2-yl)-1H-pyrazole-4-carboxamide], the IC50 in assay [1] is 10 to 25 µM; at Human Calpain 9/NS1 it was less than 3 µM; at Human Calpain 2/NS1, less than 3 µM; in assay [2] (setting [3]), more than 25 µM; on Human Calpain 1/NS1, less than 3 µM.
As for `NC(=O)C(=O)C(Cc1c[nH]c2ccccc12)NC(=O)c1nsnc1-c1ccccc1` (stereo not drawn) [Compound 532, N-(4-amino-1-(1H-indol-3-yl)-3,4-dioxobutan-2-yl)-4-phenyl-1,2,5-thiadiazole-3-carboxamide], the IC50 in assay [1] was less than 10 µM; on Human Calpain 9/NS1, less than 3 µM; at Human Calpain 2/NS1, less than 3 µM; in assay [2] (setting [3]), less than 10 µM; at Human Calpain 1/NS1, less than 3 µM.
For `Cc1ccc(F)c(-c2nn(C(F)F)cc2C(=O)NC(Cc2ccccc2)C(=O)C(N)=O)c1` (stereo not drawn) [Compound 564, N-(4-amino-3,4-dioxo-1-phenylbutan-2-yl)-1-(difluoromethyl)-3-(2-fluoro-5-methylphenyl)-1H-pyrazole-4-carboxamide], the IC50 was less than 10 µM in assay [1]; less than 3 µM on Human Calpain 9/NS1; less than 3 µM at Human Calpain 2/NS1; less than 10 µM in assay [2] (setting [3]); less than 3 µM at Human Calpain 1/NS1.
